{"source": "paper PMC12693327", "about": "“SERAAK2 as a Serotonin Receptor Ligand: Structural and Pharmacological In Vitro and In Vivo Evaluation” (Molecules, 2025)", "key": {"mice [1]": {"test_system": "mice", "test": "Amphetamine-induced hyperactivity", "type": "in vivo", "conditions": "amphetamine 3 mg/kg, vs saline-treated group, p < 0.05", "procedure": "The investigated compound (SER2AAK2) was bought from Enamine (purity over 95%) and in all tests was administered intraperitoneally (i.p.), spread in a drop of Tween 80, and diluted with an aqueous solution of 0.5% methylcellulose (tylose) and injected 60 min before the tests in a volume of 10 mL/kg. Control groups received tylose injections of the same volume and via the same route of administration.\nLocomotor activity of the mice was assessed using the Opto-Varimex-4 Auto-Track system (Columbus Instruments, OH, USA). Each mouse was placed individually in a testing cage for 25 min—5 min for acclimatization, followed by 20 min of activity recording. (6a) The total distance traveled (in centimeters) was measured. Cages were cleaned with 10% ethanol between sessions."}, "SH-SY5Y cells": {"test_system": "SH-SY5Y cells", "test": "MTS cytotoxicity assay in SH-SY5Y cells", "type": "cell-based, human", "conditions": "30 µM, 72 h", "procedure": "The cytotoxic potential of SERAAK2 was evaluated in two human-derived cell lines chosen for their physiological relevance: HepG2 (hepatocellular carcinoma) and SH-SY5Y (neuroblastoma). […] It is particularly noteworthy that the use of the SERAAK2 compound at a concentration of 30 µM reduces the number of viable cells below the level of the positive control (doxorubicin) at the same concentration (Table 3). […] Under the experimental conditions used, after 72 h of incubation, a fraction of doxorubicin-treated cells remains metabolically active and generates a low signal in the MTS assay. The enhanced signal reduction observed in the MTS assay for the tested compound, compared to doxorubicin, indicates strong cytotoxic activity leading to necrosis of the entire cell population.\nAn assessment of the cytotoxic potential of SERAAK2 was carried out utilizing the colorimetric MTS assay. This investigation was executed on both HepG2 and SH-SY5Y cell lines, adhering to an identical procedure. The cell lines, sourced from the American Type Culture Collection (Manassas, VA, USA), were cultured under standard conditions (5% CO2, 37 °C) in DMEM/F12 medium (#31330-038, ThermoFisher Scientific, Waltham, MA, USA). The medium was supplemented with 10% Fetal Bovine Serum (FBS, #A5256801, ThermoFisher Scientific) and a Penicillin–Streptomycin solution (#15140-122, ThermoFisher Scientific) until their use in the study. Cells within passage numbers 15 to 25 were plated in 96-well plates at a density of 5000 cells per well in 200 μL of medium and allowed to adhere during a 24 h incubation at 37 °C with 5% CO2. […] The plates were then subsequently returned to the 37 °C incubator, after which absorbance was recorded with a Spark microplate reader; this measurement occurred after 1 h for the HepG2 line and 3 h for the SH-SY5Y line. The ultimate cell viability percentage was determined by comparing results to the control wells, which represented 100% viability, and the wells treated with 10 μM doxorubicin, which were defined as 0% viability. […]"}, "[2]": {"set-up": "method as in PMID 40430337", "conditions": "cited from earlier work"}, "mice [3]": {"test_system": "mice", "set-up": "method as in PMID 40430337", "conditions": "30–60 mg/kg, rotarod and chimney; cited from earlier work"}, "mice [4]": {"test_system": "mice", "set-up": "method as in PMID 40430337", "conditions": "30 mg/kg; cited from earlier work"}, "CYP2D6": {"molecular_target": "CYP2D6 (Homo sapiens, UniProt P10635)", "sequence (P10635 whole entry)": "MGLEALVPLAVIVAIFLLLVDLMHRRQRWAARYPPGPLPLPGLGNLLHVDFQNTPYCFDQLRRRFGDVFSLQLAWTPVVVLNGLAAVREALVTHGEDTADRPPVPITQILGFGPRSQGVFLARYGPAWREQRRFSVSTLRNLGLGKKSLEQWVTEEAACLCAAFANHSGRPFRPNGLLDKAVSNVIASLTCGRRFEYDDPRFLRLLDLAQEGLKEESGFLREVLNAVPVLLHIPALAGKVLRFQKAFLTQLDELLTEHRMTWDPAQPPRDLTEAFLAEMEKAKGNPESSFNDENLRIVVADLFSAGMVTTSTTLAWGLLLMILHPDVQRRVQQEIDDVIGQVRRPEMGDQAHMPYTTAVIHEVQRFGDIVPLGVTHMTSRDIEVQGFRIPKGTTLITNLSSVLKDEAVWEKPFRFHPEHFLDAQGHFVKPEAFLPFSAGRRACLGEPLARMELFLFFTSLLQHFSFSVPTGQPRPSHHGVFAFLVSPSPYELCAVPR", "set-up": "purchased Promega; method as in PMID 40430337", "conditions": "cited from earlier work"}, "CYP3A4": {"molecular_target": "T1, CYP3A4 (Homo sapiens, UniProt P08684)", "T1 construct": "purchased Promega", "T1 sequence (P08684 whole entry)": "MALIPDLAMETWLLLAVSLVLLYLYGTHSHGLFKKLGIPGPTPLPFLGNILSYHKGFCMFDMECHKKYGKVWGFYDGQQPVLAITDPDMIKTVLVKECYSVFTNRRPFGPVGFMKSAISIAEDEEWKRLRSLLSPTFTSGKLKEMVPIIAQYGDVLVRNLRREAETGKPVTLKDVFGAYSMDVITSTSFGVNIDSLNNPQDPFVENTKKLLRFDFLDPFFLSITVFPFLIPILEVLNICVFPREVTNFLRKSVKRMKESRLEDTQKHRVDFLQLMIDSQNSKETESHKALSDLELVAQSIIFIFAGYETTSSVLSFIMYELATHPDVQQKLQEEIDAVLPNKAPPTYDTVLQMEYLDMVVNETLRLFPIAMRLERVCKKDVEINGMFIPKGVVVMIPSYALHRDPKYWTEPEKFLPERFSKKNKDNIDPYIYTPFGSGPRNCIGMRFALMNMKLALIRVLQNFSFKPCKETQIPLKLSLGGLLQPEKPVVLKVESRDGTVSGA", "set-up": "method as in PMID 40430337", "conditions": "cited from earlier work"}, "mice [5]": {"test_system": "mice", "set-up": "method as in PMID 40430337", "conditions": "30 mg/kg; cited from earlier work", "remark": "listed apart in the source"}, "mice [6]": {"test_system": "mice", "set-up": "method as in PMID 40430337", "conditions": "30 mg/kg; cited from earlier work", "remark": "listed apart in the source"}, "mice [7]": {"test_system": "mice", "set-up": "method as in PMID 40430337", "conditions": "30–60 mg/kg; cited from earlier work"}}, "note": "pIC50: −log10 of the molar value.", "data": [{"smiles": "CC(N)Cc1ccccc1", "note": "(stereo not shown) [amphetamine, reference compound]", "values": [{"measurement": "locomotor activity after amphetamine alone", "setting": "mice [1]", "value": "significantly increased the locomotor activity"}]}, {"smiles": "COc1cccc2c1C(=O)c1c(O)c3c(c(O)c1C2=O)C[C@@](O)(C(=O)CO)C[C@@H]3O[C@H]1C[C@H](N)[C@H](O)[C@H](C)O1", "note": "[DOX, Doxorubicin, reference compound]", "values": [{"measurement": "Percentage Reduction in the Number of Viable SH-SY5Y Cells [Mean ± SEM]", "setting": "SH-SY5Y cells", "value": "102 ± 1", "unit": "%"}]}, {"smiles": "OC(COC(c1ccccc1)c1ccccc1)CN1CCN(C(c2ccccc2)c2ccccc2)CC1", "note": "(stereo not shown) [SERAAK1]", "values": [{"measurement": "Pe (PAMPA)", "setting": "[2]", "value": "< 0.01", "unit": "×10⁻⁶ cm/s"}, {"measurement": "Motor coordination (rotarod, chimney)", "setting": "mice [3]", "value": "no impairment (30–60 mg/kg)—stable motor profile"}, {"measurement": "amphetamine-induced hyperactivity", "setting": "mice [4]", "value": "↓ hyperactivity (30 mg/kg)"}, {"measurement": "pIC50", "setting": "CYP2D6", "value": 6.14}, {"measurement": "CYP3A4 induction (increase of activity)", "setting": "CYP3A4", "value": 3.5, "unit": "fold"}, {"measurement": "Forced swim test (FST), immobility", "setting": "mice [5]", "value": "↓ immobility (30 mg/kg)—antidepressant-like effect connected with serotonergic modulation"}, {"measurement": "Elevated plus maze (EPM), open arm time and entries", "setting": "mice [6]", "value": "↑ open arm time and entries (30 mg/kg)—anxiolytic effect"}, {"measurement": "Spontaneous locomotor activity", "setting": "mice [7]", "value": "no change (30–60 mg/kg)"}]}]}
